One experiment addresses T1, Human mTOR (FLAG-TOR) (Homo sapiens, UniProt P42345).
T1 construct: FLAG
Put plainly: Human mTOR kinase assay with purified enzyme, DELFIA format. Format: biochemical. The gist of the method:
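Purified FLAG-mTOR in HEPES pH 7.4 buffer with 10 mM MnCl2 was preincubated with inhibitor and reacted 2 h at room temperature with His6-S6K substrate, then stopped with EDTA/EGTA. Phospho-T389 S6K detected by DELFIA with Eu-labelled antibody (40 ng/mL) after plate capture; inhibition computed from signal.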

The target of experiment [1] is T2, PI3K (Homo sapiens, UniProt P42336).
T2 construct: PI3 Kinase α IC50; other: PI3 Kinase α; other: PI3 Kinase α isoform, fluorescence polarization
Nature of the experiment: Fluorescence polarization assay for PI3K. The class given is biochemical. Conditions: read-out: PI3 Kinase α IC50. Summed up: (§1)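 PI3K was preincubated with compound (final DMSO 1%), and the reaction was started with PIP2/ATP substrate and run 30–60 min. It was stopped with a detector mix giving 10 nM red probe and 70 nM GST-GRP.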

The target in experiment [2] is T3, PI3K (Homo sapiens, UniProt P48736).
T3 construct: PI3 Kinase γ IC50; other: PI3 Kinase γ; other: PI3 Kinase γ isoform, fluorescence polarization
Nature of the experiment: Fluorescence polarization assay for PI3K. Conditions: read-out: PI3 Kinase γ IC50. Format: biochemical. The gist of the method: as §1

The subject of a further experiment is prostate line LNCap. Put plainly: In vitro cell culture growth assay (MTS), LNCap. Particulars: Homo sapiens, LNCaP, 72 h, LNCap cells, three days after drug treatment. Format: cell-based. Summed up: (§2)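 Viable cell density is assessed three days after inhibitor addition via MTS conversion, normalised to vehicle-treated cells.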
In a further experiment the test system is breast line MDA468. Put plainly: In vitro cell culture growth assay (MTS), MDA468. Format: cell-based. Particulars: Homo sapiens, 72 h, MDA468 cells, three days after drug treatment. Summed up: as §2
Setting [3] is: purified human mTOR enzyme, DELFIA format.
[4] abbreviates: PI3 Kinase α isoform, fluorescence polarization.
[5] abbreviates: PI3 Kinase γ isoform, fluorescence polarization.

This is an account of results in patent US8129371B2, “Thienopyrimidine and pyrazolopyrimidine compounds and their use as mTOR kinase and PI3 kinase inhibitors” (Wyeth LLC, priority 2007, dated 2012).

Where two headings read alike, the source gives them in different places.

T2 sequence (P42336 whole entry, canonical isoform): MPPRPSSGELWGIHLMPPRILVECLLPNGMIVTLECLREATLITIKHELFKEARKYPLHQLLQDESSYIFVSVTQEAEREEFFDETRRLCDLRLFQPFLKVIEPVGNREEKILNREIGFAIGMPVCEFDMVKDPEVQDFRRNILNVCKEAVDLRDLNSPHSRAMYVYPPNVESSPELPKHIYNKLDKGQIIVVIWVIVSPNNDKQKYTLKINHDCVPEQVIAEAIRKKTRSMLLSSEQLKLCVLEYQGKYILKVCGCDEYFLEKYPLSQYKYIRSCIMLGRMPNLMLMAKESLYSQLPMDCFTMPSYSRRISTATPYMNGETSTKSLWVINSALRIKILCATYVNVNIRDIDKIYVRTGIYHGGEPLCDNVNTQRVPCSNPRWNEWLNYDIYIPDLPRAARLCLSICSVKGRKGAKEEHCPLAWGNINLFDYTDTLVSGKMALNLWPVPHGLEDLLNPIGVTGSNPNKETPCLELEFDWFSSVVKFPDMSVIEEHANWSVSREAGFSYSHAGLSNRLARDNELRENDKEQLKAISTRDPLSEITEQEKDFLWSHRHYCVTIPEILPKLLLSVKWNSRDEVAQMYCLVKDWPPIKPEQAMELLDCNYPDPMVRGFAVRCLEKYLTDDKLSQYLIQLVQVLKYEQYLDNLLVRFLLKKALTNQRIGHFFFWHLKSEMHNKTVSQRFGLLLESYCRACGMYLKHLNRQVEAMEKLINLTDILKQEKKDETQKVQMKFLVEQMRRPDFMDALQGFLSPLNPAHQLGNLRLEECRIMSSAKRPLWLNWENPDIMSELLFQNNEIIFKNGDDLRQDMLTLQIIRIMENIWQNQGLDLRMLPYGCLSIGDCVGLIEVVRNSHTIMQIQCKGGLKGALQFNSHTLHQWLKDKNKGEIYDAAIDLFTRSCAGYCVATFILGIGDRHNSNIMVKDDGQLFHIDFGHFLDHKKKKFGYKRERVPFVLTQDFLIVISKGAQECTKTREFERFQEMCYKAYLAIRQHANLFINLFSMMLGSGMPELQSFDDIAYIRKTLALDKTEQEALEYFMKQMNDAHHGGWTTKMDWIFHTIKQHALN
T3 sequence (P48736 whole entry, canonical isoform): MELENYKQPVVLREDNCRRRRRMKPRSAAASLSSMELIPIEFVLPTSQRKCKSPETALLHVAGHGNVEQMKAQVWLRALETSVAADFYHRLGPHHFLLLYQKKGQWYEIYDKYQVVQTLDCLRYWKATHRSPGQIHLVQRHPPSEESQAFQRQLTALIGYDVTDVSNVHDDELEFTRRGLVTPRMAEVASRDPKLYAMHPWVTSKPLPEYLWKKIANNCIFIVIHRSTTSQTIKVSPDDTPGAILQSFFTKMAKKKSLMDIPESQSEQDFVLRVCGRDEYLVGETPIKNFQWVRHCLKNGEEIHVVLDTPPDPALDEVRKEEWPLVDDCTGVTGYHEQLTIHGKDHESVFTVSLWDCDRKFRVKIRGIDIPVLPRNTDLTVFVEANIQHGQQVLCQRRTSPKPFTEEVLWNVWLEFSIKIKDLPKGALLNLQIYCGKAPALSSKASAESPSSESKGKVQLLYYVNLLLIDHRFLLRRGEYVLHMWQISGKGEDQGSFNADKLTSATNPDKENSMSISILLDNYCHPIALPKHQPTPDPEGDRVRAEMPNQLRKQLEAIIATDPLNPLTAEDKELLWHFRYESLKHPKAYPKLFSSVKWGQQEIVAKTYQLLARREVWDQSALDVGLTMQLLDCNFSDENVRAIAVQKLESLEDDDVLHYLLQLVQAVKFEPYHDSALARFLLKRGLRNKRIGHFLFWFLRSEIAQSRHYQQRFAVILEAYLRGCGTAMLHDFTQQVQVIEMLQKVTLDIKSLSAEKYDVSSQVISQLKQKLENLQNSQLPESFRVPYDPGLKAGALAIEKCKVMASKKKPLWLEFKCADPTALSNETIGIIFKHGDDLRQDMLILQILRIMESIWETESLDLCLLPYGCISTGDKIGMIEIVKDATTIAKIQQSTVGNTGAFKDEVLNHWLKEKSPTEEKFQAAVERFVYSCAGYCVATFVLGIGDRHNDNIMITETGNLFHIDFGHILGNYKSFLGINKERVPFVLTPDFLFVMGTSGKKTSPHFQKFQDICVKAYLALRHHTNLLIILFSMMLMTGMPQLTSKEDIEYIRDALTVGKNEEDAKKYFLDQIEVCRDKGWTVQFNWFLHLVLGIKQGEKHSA

In the case of `O=C(Nc1ccc(-c2nc(N3C[C@@H]4C[C@H]3CO4)c3cnn(CC(F)(F)F)c3n2)cc1)Nc1ccc(N2CCOCC2)nc1` [Example 299, 1-(6-morpholin-4-ylpyridin-3-yl)-3-(4-{4-[(1S,4S)-2-oxa-5-azabicyclo[2.2.1]hept-5-yl]-1-(2,2,2-trifluoroethyl)-1H-pyrazolo[3,4-d]pyrimidin-6-yl}phenyl)urea], the IC50 was 2.85 nM on Human mTOR (FLAG-TOR) (setting [3]); 10200 nM at PI3K [1] (setting [4]); greater than 10000 nM at PI3K [2] (setting [5]); 10 nM with prostate line LNCap; 42 nM in the experiment with breast line MDA468.

In the case of `O=CN1CC2CN(c3nc(-c4ccc(NC(=O)Nc5ccncc5)cc4)nc4c3cnn4CC(F)(F)F)CC(C1)O2` [Example 338, 1-{4-[4-(7-formyl-9-oxa-3,7-diazabicyclo[3.3.1]non-3-yl)-1-(2,2,2-trifluoroethyl)-1H-pyrazolo[3,4-d]pyrimidin-6-yl]phenyl}-3-pyridin-4-ylurea], the IC50 against Human mTOR (FLAG-TOR) (setting [3]) was 787 nM; on PI3K [1] (setting [4]), 9500 nM; on PI3K [2] (setting [5]), greater than 10000 nM; in the experiment with prostate line LNCap it was 2950 nM; in the experiment on breast line MDA468, 1870 nM.

`CN1CCN(c2ccc(NC(=O)Nc3ccc(-c4nc(N5CC6CCC(C5)O6)c5cnn(C6CCC7(CC6)OCCO7)c5n4)cc3)cc2)CC1` [Example 135, 1-{4-[1-(1,4-dioxaspiro[4.5]dec-8-yl)-4-(8-oxa-3-azabicyclo[3.2.1]oct-3-yl)-1H-pyrazolo[3,4-d]pyrimidin-6-yl]phenyl}-3-[4-(4-methylpiperazin-1-yl)phenyl]urea]: the half-maximal inhibitory concentration (IC50) amounted to 0.268 nM on Human mTOR (FLAG-TOR); 146 nM on PI3K [1] (PI3 Kinase α); 1710 nM on PI3K [2] (PI3 Kinase γ); 1 nM in the experiment on prostate line LNCap; 1 nM in the experiment on breast line MDA468.

As to `Cn1ncc2c(N3CC4CCC(C3)O4)nc(-c3ccc(NC(=O)Nc4ccncc4)cc3)nc21` [Example 57, 1-{4-[1-methyl-4-(8-oxa-3-azabicyclo[3.2.1]oct-3-yl)-1H-pyrazolo[3,4-d]pyrimidin-6-yl]phenyl}-3-pyridin-4-ylurea], the IC50 is 0.18 nM against Human mTOR (FLAG-TOR); 162 nM at PI3K [1] (PI3 Kinase α); 782 nM at PI3K [2] (PI3 Kinase γ); 0.8 nM with prostate line LNCap; 9 nM with breast line MDA468.

Regarding `O=C(Nc1ccc(-c2nc(N3CC4CCC(C3)O4)c3cnn(C4CCC5(CCCO5)CC4)c3n2)cc1)OCCO` (single isomer, unassigned) [Example 315, 2-hydroxyethyl (4-{4-(8-oxa-3-azabicyclo[3.2.1]oct-3-yl)-1-[(5r,8r)-1-oxaspiro[4.5]dec-8-yl]-1H-pyrazolo[3,4-d]pyrimidin-6-yl}phenyl)carbamate], the IC50 against Human mTOR (FLAG-TOR) (setting [3]) was 0.8 nM; at PI3K [1] (setting [4]), 5600 nM; at PI3K [2] (setting [5]) it was 2060 nM; in the experiment with prostate line LNCap, 10 nM; with breast line MDA468 it was 220 nM.

As to `O=C(Nc1ccc(CCO)cc1)Nc1ccc(-c2nc(N3CC4CCC(C3)O4)c3cnn(CCO)c3n2)cc1` [Example 202, 1-{4-[1-(2-hydroxyethyl)-4-(8-oxa-3-azabicyclo[3.2.1]oct-3-yl)-1H-pyrazolo[3,4-d]pyrimidin-6-yl]phenyl}-3-[4-(2-hydroxyethyl)phenyl]urea], the IC50 at Human mTOR (FLAG-TOR) was 0.215 nM; at PI3K [1] (PI3 Kinase α), 44 nM; at PI3K [2] (PI3 Kinase γ), 2160 nM; in the experiment on prostate line LNCap it was 1 nM; in the experiment on breast line MDA468 it was 4 nM.

For `CO[C@H]1CC[C@H](n2ncc3c(N4CC5CCC(C4)O5)nc(-c4ccc(NC(=O)Nc5ccc(N6CCN(C)CC6)cc5)cc4)nc32)CC1` (relative stereo) [Example 396, 1-{4-[1-(trans-4-methoxycyclohexyl)-4-(8-oxa-3-azabicyclo[3.2.1]oct-3-yl)-1H-pyrazolo[3,4-d]pyrimidin-6-yl]phenyl}-3-[4-(4-methylpiperazin-1-yl)phenyl]urea], the IC50 against Human mTOR (FLAG-TOR) (setting [3]) was 0.335 nM; at PI3K [1] (setting [4]), 145 nM; on PI3K [2] (setting [5]) it was 1790 nM; with prostate line LNCap, less than 1 nM; in the experiment with breast line MDA468, 4 nM.

Regarding `CCn1ncc2c(N3CC4CCC(C3)O4)nc(-c3ccc(NC(=O)OCC(C)O)cc3)nc21` (centres unmarked) [Example 191, 2-hydroxypropyl {4-[1-ethyl-4-(8-oxa-3-azabicyclo[3.2.1]oct-3-yl)-1H-pyrazolo[3,4-d]pyrimidin-6-yl]phenyl}carbamate], the IC50 against Human mTOR (FLAG-TOR) was 3.55 nM; at PI3K [1] (PI3 Kinase α), 6640 nM; at PI3K [2] (PI3 Kinase γ), greater than 10000 nM; in the experiment with prostate line LNCap it was 210 nM; with breast line MDA468 it was 780 nM.

As to `COC(=O)N1CCC(n2ncc3c(N4CC5CCC(C4)O5)nc(-c4ccc(NC(=O)OCCN5CCN(C)CC5)cc4)nc32)CC1` [Example 118, methyl 4-{6-[4-({[2-(4-methylpiperazin-1-yl)ethoxy]carbonyl}amino)phenyl]-4-(8-oxa-3-azabicyclo[3.2.1]oct-3-yl)-1H-pyrazolo[3,4-d]pyrimidin-1-yl}piperidine-1-carboxylate], the IC50 on Human mTOR (FLAG-TOR) is greater than 800 nM; on PI3K [1] (PI3 Kinase α), 8040 nM; at PI3K [2] (PI3 Kinase γ) it was greater than 10000 nM; in the experiment on prostate line LNCap, 2800 nM; in the experiment with breast line MDA468, 4700 nM.

With `CN1CCN(c2ccc(NC(=O)Nc3ccc(-c4nc(N5CC6CCC(C5)O6)c5cnn(CCC#N)c5n4)cc3)cn2)CC1` [Example 222, 1-{4-[1-(2-cyanoethyl)-4-(8-oxa-3-azabicyclo[3.2.1]oct-3-yl)-1H-pyrazolo[3,4-d]pyrimidin-6-yl]phenyl}-3-[6-(4-methylpiperazin-1-yl)pyridin-3-yl]urea], the IC50 on Human mTOR (FLAG-TOR) came to 0.405 nM; on PI3K [1] (PI3 Kinase α), 143 nM; on PI3K [2] (PI3 Kinase γ) it was 2610 nM; in the experiment with prostate line LNCap it was 1 nM; in the experiment on breast line MDA468, 8 nM.

With `O=C(Nc1ccc(-c2nc(N3CC4CCC(C3)O4)c3cnn(CCO)c3n2)cc1)Nc1cccnc1` [Example 199, 1-{4-[1-(2-hydroxyethyl)-4-(8-oxa-3-azabicyclo[3.2.1]oct-3-yl)-1H-pyrazolo[3,4-d]pyrimidin-6-yl]phenyl}-3-pyridin-3-ylurea], the IC50 at Human mTOR (FLAG-TOR) was 0.46 nM; on PI3K [1] (PI3 Kinase α), 174 nM; on PI3K [2] (PI3 Kinase γ) it was 3990 nM; in the experiment with prostate line LNCap it was 90 nM; in the experiment on breast line MDA468, 110 nM.

In the case of `N#CCCn1ncc2c(N3CC4CCC(C3)O4)nc(-c3ccc(NC(=O)Nc4ccc(N5CCOCC5)nc4)cc3)nc21` [Example 223, 1-{4-[1-(2-cyanoethyl)-4-(8-oxa-3-azabicyclo[3.2.1]oct-3-yl)-1H-pyrazolo[3,4-d]pyrimidin-6-yl]phenyl}-3-(6-morpholin-4-ylpyridin-3-yl)urea], the 50% inhibitory concentration (IC50) against Human mTOR (FLAG-TOR) is 0.265 nM; on PI3K [1] (PI3 Kinase α) it was 1660 nM; on PI3K [2] (PI3 Kinase γ), greater than 10000 nM; in the experiment on prostate line LNCap, 10 nM; in the experiment with breast line MDA468 it was 21 nM.

For the compound `CNC(=O)Nc1ccc(-c2nc(N3CC4CCC(C3)O4)c3cnn(C4CCC(NCCO)CC4)c3n2)cc1` (centres unmarked) [Example 334, 1-{4-[1-{4-[(2-hydroxyethyl)amino]cyclohexyl}-4-(8-oxa-3-azabicyclo[3.2.1]oct-3-yl)-1H-pyrazolo[3,4-d]pyrimidin-6-yl]phenyl}-3-methylurea], the IC50 on Human mTOR (FLAG-TOR) (setting [3]) stood at 4.5 nM; at PI3K [1] (setting [4]) it was 434 nM; at PI3K [2] (setting [5]), 3940 nM; with prostate line LNCap, 2960 nM; in the experiment with breast line MDA468, 5200 nM.
